Experimental data published in ChEMBL document CHEMBL1201862, “PubChem BioAssay data set” (2004).
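Five concentrations, 48 hours, 96-well plates. At the GI50, growth is halved.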 Calls of active or inactive are those of the source. Rule as the data show it: active = GI50 up to about 1.1 µM and inactive = higher. Residues, ends and D or L forms follow the SMILES beside them. *: point of attachment. OBn = c1ccc(CO*)cc1

Key:
Test in all cases: NCI-60 cell line screen, 48 h
A549 = system: A549
ACHN = system: ACHN
BT-549 = system: BT-549
COLO 205 = system: COLO 205
HCC 2998 = system: HCC 2998
HT-29 = system: HT-29
KM12 = system: KM12
MDA-MB-435 = system: MDA-MB-435
MOLT-4 = system: MOLT-4
NCI-H460 = system: NCI-H460
NCI-H522 = system: NCI-H522
NCI/ADR-RES = system: NCI/ADR-RES
PC-3 = system: PC-3
SF-268 = system: SF-268
SF-539 = system: SF-539
SK-MEL-28 = system: SK-MEL-28
SK-OV-3 = system: SK-OV-3
UACC-257 = system: UACC-257
HOP-92 = system: HOP-92

COc1ccc(NC2=CC(=O)C(=O)c3ccccc32)nn1
GI50 (A549): 3.1 µM (inactive)
GI50 (ACHN): 1.66 µM (inactive)
GI50 (BT-549): 0.743 µM (active)
GI50 (COLO 205): 1.73 µM (inactive)
GI50 (HCC 2998): 6.68 µM (inactive)
GI50 (HT-29): 1.64 µM (inactive)
GI50 (KM12): 0.361 µM (active)
GI50 (MDA-MB-435): 0.197 µM (active)
GI50 (MOLT-4): 0.546 µM (active)
GI50 (NCI-H460): 1.54 µM (inactive)
GI50 (NCI-H522): 0.492 µM (active)
GI50 (NCI/ADR-RES): 0.514 µM (active)
GI50 (PC-3): 2.73 µM (inactive)
GI50 (SF-268): 1.51 µM (inactive)
GI50 (SF-539): 0.902 µM (active)
GI50 (SK-MEL-28): 1.08 µM (active)
GI50 (SK-OV-3): 2.17 µM (inactive)
GI50 (UACC-257): 1.72 µM (inactive)

CSc1nc(N)c(NC2OC(CO)C(O)C2O)c(=O)[nH]1 (stereo not given)
GI50 (A549): > 100 µM (inactive)
GI50 (BT-549): > 100 µM (inactive)
GI50 (COLO 205): > 100 µM (inactive)
GI50 (HT-29): > 100 µM (inactive)
GI50 (KM12): > 100 µM (inactive)
GI50 (MDA-MB-435): > 100 µM (inactive)
GI50 (MOLT-4): > 100 µM (inactive)
GI50 (NCI-H460): > 100 µM (inactive)
GI50 (NCI-H522): > 100 µM (inactive)
GI50 (NCI/ADR-RES): > 100 µM (inactive)
GI50 (PC-3): > 100 µM (inactive)
GI50 (SF-268): > 100 µM (inactive)
GI50 (SF-539): > 100 µM (inactive)
GI50 (SK-MEL-28): > 100 µM (inactive)
GI50 (SK-OV-3): > 100 µM (inactive)
GI50 (UACC-257): > 100 µM (inactive)

CN1CC=C(c2c(N)nc(N)[nH]c2=O)CC1
GI50 (A549): > 100 µM (inactive)
GI50 (ACHN): > 100 µM (inactive)
GI50 (BT-549): > 100 µM (inactive)
GI50 (COLO 205): > 100 µM (inactive)
GI50 (HOP-92): > 100 µM (inactive)
GI50 (HT-29): > 100 µM (inactive)
GI50 (KM12): > 100 µM (inactive)
GI50 (MDA-MB-435): > 100 µM (inactive)
GI50 (MOLT-4): > 100 µM (inactive)
GI50 (NCI-H460): > 100 µM (inactive)
GI50 (NCI-H522): > 100 µM (inactive)
GI50 (NCI/ADR-RES): > 100 µM (inactive)
GI50 (PC-3): > 100 µM (inactive)
GI50 (SF-268): > 100 µM (inactive)
GI50 (SF-539): > 100 µM (inactive)
GI50 (SK-MEL-28): > 100 µM (inactive)
GI50 (SK-OV-3): > 100 µM (inactive)
GI50 (UACC-257): > 100 µM (inactive)

NC(CCC(=O)OCc1ccccc1)C(=O)NC(CCC(=O)OCc1ccccc1)C(=O)O (stereo not given) (H-Glu(OBn)-Glu(OBn)-OH; configuration not given here)
GI50 (A549): > 100 µM (inactive)
GI50 (ACHN): > 100 µM (inactive)
GI50 (BT-549): > 100 µM (inactive)
GI50 (COLO 205): > 100 µM (inactive)
GI50 (HCC 2998): > 100 µM (inactive)
GI50 (HOP-92): > 100 µM (inactive)
GI50 (HT-29): > 100 µM (inactive)
GI50 (KM12): > 100 µM (inactive)
GI50 (MDA-MB-435): > 100 µM (inactive)
GI50 (MOLT-4): > 100 µM (inactive)
GI50 (NCI-H460): > 100 µM (inactive)
GI50 (NCI-H522): > 100 µM (inactive)
GI50 (NCI/ADR-RES): > 100 µM (inactive)
GI50 (PC-3): > 100 µM (inactive)
GI50 (SF-268): > 100 µM (inactive)
GI50 (SK-MEL-28): > 100 µM (inactive)
GI50 (SK-OV-3): > 100 µM (inactive)

O=C(O)c1ccc(C(c2c(O)oc3ccccc3c2=O)c2c(O)oc3ccccc3c2=O)cc1
GI50 (A549): > 100 µM (inactive)
GI50 (ACHN): > 100 µM (inactive)
GI50 (BT-549): > 100 µM (inactive)
GI50 (COLO 205): 40.9 µM (inactive)
GI50 (HCC 2998): 29.3 µM (inactive)
GI50 (HOP-92): 2.82 µM (inactive)
GI50 (HT-29): > 100 µM (inactive)
GI50 (KM12): > 100 µM (inactive)
GI50 (MDA-MB-435): > 100 µM (inactive)
GI50 (MOLT-4): > 100 µM (inactive)
GI50 (NCI-H460): > 100 µM (inactive)
GI50 (NCI/ADR-RES): > 100 µM (inactive)
GI50 (PC-3): > 100 µM (inactive)
GI50 (SF-268): 4.97 µM (inactive)
GI50 (SF-539): > 100 µM (inactive)
GI50 (SK-MEL-28): 15.2 µM (inactive)
GI50 (SK-OV-3): > 100 µM (inactive)
GI50 (UACC-257): > 100 µM (inactive)

CCOC1=C/C(=N\Nc2ccc([N+](=O)[O-])cc2)CCC1
GI50 (A549): 71.6 µM (inactive)
GI50 (ACHN): 12.3 µM (inactive)
GI50 (BT-549): 13.6 µM (inactive)
GI50 (COLO 205): 15.3 µM (inactive)
GI50 (HOP-92): 39.8 µM (inactive)
GI50 (HT-29): 14.6 µM (inactive)
GI50 (KM12): 14.3 µM (inactive)
GI50 (MDA-MB-435): 16.8 µM (inactive)
GI50 (MOLT-4): 4.83 µM (inactive)
GI50 (NCI-H460): 25.4 µM (inactive)
GI50 (NCI-H522): 4.45 µM (inactive)
GI50 (NCI/ADR-RES): 30.1 µM (inactive)
GI50 (PC-3): 53.6 µM (inactive)
GI50 (SF-268): 11.3 µM (inactive)
GI50 (SF-539): 48.1 µM (inactive)
GI50 (SK-MEL-28): 23.2 µM (inactive)
GI50 (SK-OV-3): 44.7 µM (inactive)
GI50 (UACC-257): 63.8 µM (inactive)

CC1(C)CC(=O)C2=C(C1)c1c(ccc3ccccc13)NC2c1cn(Cc2ccc(Cl)cc2)c2ccccc12 (stereo not given)
GI50 (A549): > 100 µM (inactive)
GI50 (ACHN): 61.9 µM (inactive)
GI50 (BT-549): 95.9 µM (inactive)
GI50 (COLO 205): > 100 µM (inactive)
GI50 (HOP-92): 27.7 µM (inactive)
GI50 (HT-29): > 100 µM (inactive)
GI50 (KM12): > 100 µM (inactive)
GI50 (MDA-MB-435): > 100 µM (inactive)
GI50 (MOLT-4): 58.1 µM (inactive)
GI50 (NCI-H460): 23.9 µM (inactive)
GI50 (NCI-H522): 66.8 µM (inactive)
GI50 (NCI/ADR-RES): 52.6 µM (inactive)
GI50 (PC-3): > 100 µM (inactive)
GI50 (SF-268): > 100 µM (inactive)
GI50 (SF-539): > 100 µM (inactive)
GI50 (SK-OV-3): > 100 µM (inactive)
GI50 (UACC-257): 94.2 µM (inactive)

C#CCOC(=O)[C@@H](C)c1ccc2cc(OC)ccc2c1
GI50 (ACHN): > 100 µM (inactive)
GI50 (BT-549): 54.5 µM (inactive)
GI50 (COLO 205): > 100 µM (inactive)
GI50 (HOP-92): 79.6 µM (inactive)
GI50 (KM12): > 100 µM (inactive)
GI50 (MDA-MB-435): 66.4 µM (inactive)
GI50 (MOLT-4): 32.1 µM (inactive)
GI50 (NCI-H460): > 100 µM (inactive)
GI50 (NCI-H522): 40.2 µM (inactive)
GI50 (NCI/ADR-RES): 68.2 µM (inactive)
GI50 (PC-3): 82.6 µM (inactive)
GI50 (SF-268): > 100 µM (inactive)
GI50 (SF-539): 76.9 µM (inactive)
GI50 (SK-OV-3): > 100 µM (inactive)
GI50 (UACC-257): 96.2 µM (inactive)

O=C(NCCCc1cn[nH]c(=O)n1)c1cccc2nc3ccccc3nc12
GI50 (A549): > 100 µM (inactive)
GI50 (ACHN): 31.6 µM (inactive)
GI50 (BT-549): > 100 µM (inactive)
GI50 (COLO 205): > 100 µM (inactive)
GI50 (HCC 2998): > 100 µM (inactive)
GI50 (HOP-92): 75 µM (inactive)
GI50 (HT-29): > 100 µM (inactive)
GI50 (KM12): > 100 µM (inactive)
GI50 (MDA-MB-435): > 100 µM (inactive)
GI50 (MOLT-4): 33.3 µM (inactive)
GI50 (NCI-H460): > 100 µM (inactive)
GI50 (NCI/ADR-RES): > 100 µM (inactive)
GI50 (PC-3): > 100 µM (inactive)
GI50 (SF-268): 91.8 µM (inactive)
GI50 (SF-539): > 100 µM (inactive)
GI50 (SK-MEL-28): > 100 µM (inactive)
GI50 (SK-OV-3): > 100 µM (inactive)
GI50 (UACC-257): > 100 µM (inactive)

CCCCCCNC(=S)N/N=C(\C)c1ccccn1
GI50 (A549): 0.12 µM (active)
GI50 (ACHN): < 0.0113 µM (active)
GI50 (BT-549): 0.111 µM (active)
GI50 (COLO 205): < 0.01 µM (active)
GI50 (HCC 2998): 0.741 µM (active)
GI50 (KM12): 0.394 µM (active)
GI50 (MDA-MB-435): 1.53 µM (inactive)
GI50 (MOLT-4): < 0.01 µM (active)
GI50 (NCI-H460): 0.347 µM (active)
GI50 (NCI-H522): 0.06 µM (active)
GI50 (NCI/ADR-RES): < 0.01 µM (active)
GI50 (PC-3): < 0.01 µM (active)
GI50 (SF-268): 0.604 µM (active)
GI50 (SF-539): 1.84 µM (inactive)
GI50 (SK-MEL-28): 2.56 µM (inactive)
GI50 (SK-OV-3): 0.181 µM (active)
GI50 (UACC-257): 0.01 µM (active)

CC1=C(C(=O)OC(C)C)C(c2ccccc2[N+](=O)[O-])C(C(=O)OC(CO[N+](=O)[O-])CO[N+](=O)[O-])=C(C)N1 (stereo not given)
GI50 (A549): 3.09 µM (inactive)
GI50 (ACHN): 3.21 µM (inactive)
GI50 (BT-549): 3.52 µM (inactive)
GI50 (COLO 205): 5.24 µM (inactive)
GI50 (HCC 2998): 5.83 µM (inactive)
GI50 (HT-29): 2.81 µM (inactive)
GI50 (KM12): 3.75 µM (inactive)
GI50 (MDA-MB-435): 3.48 µM (inactive)
GI50 (MOLT-4): 1.46 µM (inactive)
GI50 (NCI-H460): 3.1 µM (inactive)
GI50 (NCI-H522): 2.42 µM (inactive)
GI50 (NCI/ADR-RES): 3.27 µM (inactive)
GI50 (PC-3): 2.14 µM (inactive)
GI50 (SF-268): 2.51 µM (inactive)
GI50 (SF-539): 3.18 µM (inactive)
GI50 (SK-MEL-28): 4.01 µM (inactive)
GI50 (SK-OV-3): 3.15 µM (inactive)
GI50 (UACC-257): 3.85 µM (inactive)
